Measurements from patent US9790217B2, “Pyridinyloxy- and phenyloxy-pyrazolyl compounds” (Hoffmann-La Roche Inc., priority 2014, dated 2017).

Assays:
[1] = test system: patients with primary aldosteronism; details: cited from earlier work
[2] = test system: rat model of chronic kidney disease; details: rat CKD model, cited from earlier work; for plasma aldosterone: FAD286 4 weeks, spironolactone 4 and 8 weeks of treatment
[3] = test system: rats with experimental heart failure; details: cited from earlier work
human CYP11B2 = human CYP11B2 (Homo sapiens (Human), UniProt P19099); assay: G-402 cellular enzyme assay, human CYP11B2 (aldosterone release, HTRF); type: cell-based; details: G-402 cells expressing human CYP11B2; 1 μM Deoxycorticosterone
Method in brief: (§1)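 Stable G-402 transfectants expressing human CYP11B1 or CYP11B2 with inhibitors at varying doses, 16 h in DMEM/F12 with 2.5% charcoal-treated FCS; substrate 1 μM 11-deoxycortisol (CYP11B1) or 1 μM deoxycorticosterone (CYP11B2). Cortisol or aldosterone in supernatant measured by HTRF; EC50 from 4-parameter MMF sigmoidal fit.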

human CYP11B1 = human CYP11B1 (Homo sapiens (Human), UniProt P15538); assay: G-402 cellular enzyme assay, human CYP11B1 (cortisol release, HTRF); type: cell-based; details: G-402 cells expressing human CYP11B1; 1 μM Deoxycortisol
Method in brief: as §1

Chain of human CYP11B2 (P19099 25-503): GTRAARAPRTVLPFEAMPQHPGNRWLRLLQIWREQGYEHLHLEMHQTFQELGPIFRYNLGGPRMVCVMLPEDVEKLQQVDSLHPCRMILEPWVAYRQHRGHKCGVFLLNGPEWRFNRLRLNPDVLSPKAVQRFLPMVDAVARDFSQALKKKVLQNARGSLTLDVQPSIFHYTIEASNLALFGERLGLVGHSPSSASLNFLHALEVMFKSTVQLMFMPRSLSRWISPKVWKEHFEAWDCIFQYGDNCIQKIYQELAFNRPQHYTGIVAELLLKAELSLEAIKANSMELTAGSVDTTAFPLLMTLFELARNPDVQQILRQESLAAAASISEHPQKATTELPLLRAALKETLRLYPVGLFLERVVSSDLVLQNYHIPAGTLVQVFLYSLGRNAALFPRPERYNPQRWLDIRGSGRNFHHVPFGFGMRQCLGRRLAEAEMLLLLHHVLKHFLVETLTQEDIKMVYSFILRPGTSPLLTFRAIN
Chain of human CYP11B1 (P15538 25-503): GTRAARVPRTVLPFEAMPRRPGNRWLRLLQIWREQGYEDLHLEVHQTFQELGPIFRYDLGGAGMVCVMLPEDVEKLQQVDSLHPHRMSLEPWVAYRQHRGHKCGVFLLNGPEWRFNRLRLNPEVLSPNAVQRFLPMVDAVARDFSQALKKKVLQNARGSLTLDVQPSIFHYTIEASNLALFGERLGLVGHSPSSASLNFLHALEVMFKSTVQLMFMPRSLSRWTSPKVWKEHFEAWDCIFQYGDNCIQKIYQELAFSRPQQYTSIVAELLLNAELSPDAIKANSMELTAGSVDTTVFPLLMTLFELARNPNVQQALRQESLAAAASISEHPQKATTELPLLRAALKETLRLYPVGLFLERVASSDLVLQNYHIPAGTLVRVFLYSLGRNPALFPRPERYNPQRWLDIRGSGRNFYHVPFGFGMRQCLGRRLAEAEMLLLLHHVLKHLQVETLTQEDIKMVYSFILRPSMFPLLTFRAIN

For `N#Cc1ccc([C@H]2CCc3cncn32)c(F)c1` [LCI699], the blood pressure [1] is given as “mildly decreased”, the hypokalemia [1] is given as “corrected” and the circulating aldosterone levels ([1]; oral) is given as “significantly lower”.
For `N#Cc1ccc(C2CCCc3cncn32)cc1` (stereo not shown) [FAD286], the plasma aldosterone [2] is listed as “reduced”, the “cardiac and aortic medial hypertrophy” value [2] is listed as “attenuated” and the “renal effects of angiotensin II and high salt (albuminuria, azotemia, renovascular hypertrophy, glomerular injury, PAI-1, osteopontin mRNA, tubulointerstitial fibrosis)” value [2] is listed as “prevented”. The “blood pressure and cardiovascular function and structure” value [3] was “improved” and the “kidney function and morphology” value [3] was “improve”.
In the case of `CC(=O)S[C@@H]1CC2=CC(=O)CC[C@]2(C)[C@H]2CC[C@@]3(C)[C@@H](CC[C@@]34CCC(=O)O4)[C@H]12` [spironolactone], the plasma aldosterone [2] is given as “increased”, the “angiotensin II and salt-stimulated PAI-1 mRNA expression in the aorta and the heart” value [2] is given as “enhanced” and the “cardiac and aortic medial hypertrophy” value [2] is given as “attenuated”. For the same molecule, the “renal effects of angiotensin II and high salt (albuminuria, azotemia, renovascular hypertrophy, glomerular injury, PAI-1, osteopontin mRNA, tubulointerstitial fibrosis)” value [2] was “prevented”.
Work on `N#Cc1ccc(Oc2cn[nH]c2-c2cccc(OCc3ccncc3)c2)cc1` [Example 54, 4-[[3-[3-(Pyridin-4-ylmethoxy)phenyl]-1H-pyrazol-4-yl]oxy]benzonitrile] yielded an EC50 (human CYP11B2) of 3.5 nM and an EC50 (human CYP11B1) of 46.5 nM.
Work on `Cn1nncc1COc1cccc(-c2[nH]ncc2Oc2ccc(C#N)cc2)c1` [Example 53, 4-[[3-[3-[(3-Methyltriazol-4-yl)methoxy]phenyl]-1H-pyrazol-4-yl]oxy]benzonitrile] yielded an EC50 (human CYP11B2) of 23.8 nM and an EC50 (human CYP11B1) of 198 nM.
`Cn1cc(C(=O)N2CCCC(c3[nH]ncc3Oc3ccc(C#N)cc3)C2)cn1` (racemic) [Example 63, (rac)-4-[[3-[1-(1-Methylpyrazole-4-carbonyl)piperidin-3-yl]-1H-pyrazol-4-yl]oxy]benzonitrile] gave an EC50 (human CYP11B2) of 150 nM and an EC50 (human CYP11B1) of 6470 nM.
With `COc1ccccc1-c1[nH]ncc1Oc1ccc(Cl)cc1` [Example 4, 4-(4-Chlorophenoxy)-3-(2-methoxyphenyl)-1H-pyrazole] the EC50 (human CYP11B2) was 0.1 nM and the EC50 (human CYP11B1) was 1.3 nM.
For `CC(=O)N1CCCC(c2[nH]ncc2Oc2ccc(C#N)cc2)C1` (racemic) [Example 62, (rac)-4-[[3-(1-Acetylpiperidin-3-yl)-1H-pyrazol-4-yl]oxy]benzonitrile], the EC50 (human CYP11B2) was 370 nM and the EC50 (human CYP11B1) was 2280 nM.
